Results: patent US20260176289A1, “SMALL MOLECULE INHIBITORS OF KRAS PROTEINS” (Merck Sharp & Dohme LLC, priority 2022, published 2026)
Like-named read-outs stand apart in the source and are kept apart here.

What was measured:
[1] = system: MKN-1 cells; assay: Cellular phospho-ERK assay, MKN-1 cells (amplified wild-type KRAS); format: cell-based; settings: Homo sapiens, read-out: MKN1 pERK IC50
Protocol: (§1) Procedure for Cellular Phospho-ERK Assay in KRAS Wild Type and Mutant (G12D, G12V) Cell Lines
(§2) MKN-1 cells (JCRB JCRB0252) containing amplified wild-type KRAS, were cultured in growth medium that contains RPMI 1640-GlutaMAX™-I (ThermoFisher Scientific 61870) containing 10% heat inactivated fetal bovine serum (ThermoFisher Scientific 10091148), 1 mM sodium pyruvate and 10 mM HEPES. PANC08.13 cells (ATCC® CRL-2551™), containing homozygous KRAS-G12D activating mutation, were cultured in growth medium made of RPMI1640-GlutaMAX™-I (ThermoFisher Scientific 61870) containing 15% heat inactivated fetal bovine serum (ThermoFisher Scientific 10091148)). AsPC-1 cells (ATCC® CRL-1682™), containing homozygous KRAS-G12D activating mutation, were cultured in T150 flask in growth medium (RPMI medium 1640-GlutaMAX™-I (ThermoFisher Scientific 61870) containing 10% fetal bovine serum (ThermoFisher Scientific 10091148)). SW620 cells (ATCC® […]), containing homozygous KRAS-G12V activating mutation, were cultured in growth medium that contains RPMI 1640-GlutaMAX™-I (ThermoFisher Scientific 61870) containing 10% heat inactivated fetal bovine serum (ThermoFisher Scientific 10091148).
(§3) Cells for the assay were harvested in growth medium after TrypLE (ThermoFisher scientific 12604021) digestion and were seeded in a 384-well collagen coated cell culture plate (Corning 356702) at a density of 10,000-15,000 cells/20 μL/well, and incubated at 37° C., 5% CO2 overnight. The compound (with 10 mM stock concentration) dose-response titrations were prepared [30 μM final ERK detection assay concentration and 1:3 dilutions, 10-point dose response] and appropriate amounts (270 nL) of test compounds were dispensed in a 384-well intermediate plate using an Echo 550 liquid handler. 30 μL/well of RPMI medium 1640-GlutaMAX™—I was added to the intermediate plate and the contents of the intermediate plate (10 μL/well) were then transferred to the 384-well collagen coated cell culture plate, which was incubated at 37° C., 5% CO2 for 2 hours. After removal of medium from the collagen coated cell culture plate, cells were lysed in lysis buffer from Alpha SureFire® Ultra™ Multiplex p-ERK and total ERK assay kit (PerkinElmer MPSU-PTERK) containing Halt™ Protease and Phosphatase inhibitor cocktail (ThermoFisher Scientific 78446) at room temperature with constant shaking at 300 rpm for 30 minutes. The cell lysates were then transferred to an OptiPlate-384 plate (PerkinElmer 6005620), and the phosphorylation of ERK (p-ERK) and total ERK levels were detected by Alpha SureFire® Ultra™ Multiplex p-EEK kit and total ERK assay kit (PerkinElmer MPSU-PTERK) following the manufacturer's protocol. Assay plates were read on a En Vision Multimode Plate Reader (PerkinElmer), and the ratio of p-ERK vs. total ERK in each well was used as the final readout. Dose response curves were analyzed using a 4-parameter logistic model to calculate IC50 values using Spotfire software.

[2] = system: AsPC-1 cells; assay: Cellular phospho-ERK assay, AsPC-1 cells (homozygous KRAS-G12D); format: cell-based; settings: read-out: AsPC1 pERK IC50
Outline: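 p-ERK/total ERK ratio, measured by AlphaLISA SureFire Ultra multiplex in lysates, was fitted to a 4-parameter logistic model for IC50. Compound exposure was 2 h at 37° C, 5% CO2, 10-point 1:3 dilutions from 30 μM final, on cells plated the previous night.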

[3] = target: KRAS-G12D (Homo sapiens, UniProt P01116, G12D); assay: SOS-catalyzed nucleotide exchange assay (Procedure A, TR-FRET), KRAS-G12D; format: biochemical; settings: nucleotide exchange, read-out: KRAS G12D GNE IC50
Outline: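 Signal ratio (520/495 nm, excitation 340 nm) reports Bodipy-GDP retention on biotinylated RAS after SOS-catalyzed exchange with 3 mM GTP. SOS was 40 nM, except 160 nM for G12V. Room-temperature exchange lasted 60 min (90 min for G12V), following a 60 min compound preincubation.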

[4] = target: KRAS-WT (Homo sapiens, UniProt P01116); assay: SOS-catalyzed nucleotide exchange assay (Procedure A, TR-FRET), KRAS-WT; format: biochemical; settings: nucleotide exchange, read-out: KRAS WT GNE IC50
Outline: (§4)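 Compounds (10-point, 3-fold) were preincubated 60 min at room temperature with a biotinylated RAS/Bodipy-GDP/Tb-streptavidin TR-FRET complex. Exchange was started with human SOS plus 3 mM GTP. RAS/SOS: G12C 3/40 nM, WT 1/40 nM, NRAS 1.25/40 nM (60 min); G12V 1.25/160 nM (90 min). The 520/495 ratio was fit four-parameter.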

[5] = system: SW620 cells; assay: Cellular phospho-ERK assay, SW620 cells (homozygous KRAS-G12V); format: cell-based; settings: Homo sapiens, read-out: SW620 pERK IC50
Protocol: as §1, §2, §3

[6] = target: KRAS-G12V (Homo sapiens, UniProt P01116, G12V); assay: SOS-catalyzed nucleotide exchange assay (Procedure A, TR-FRET), KRAS-G12V; format: biochemical; settings: nucleotide exchange, read-out: KRAS G12V GNE IC50
Outline: as §4

[7] = amplified wild-type KRAS, 2 hours
[8] = Homo sapiens, ASPC1, 2 h, KRAS-G12D, 2 hours
[9] = Homo sapiens, ASPC1, 2 h, 2 hours compound incubation

Chain of KRAS-G12V (P01116 with tags, fused parts or gaps isoform P01116-2 G12V): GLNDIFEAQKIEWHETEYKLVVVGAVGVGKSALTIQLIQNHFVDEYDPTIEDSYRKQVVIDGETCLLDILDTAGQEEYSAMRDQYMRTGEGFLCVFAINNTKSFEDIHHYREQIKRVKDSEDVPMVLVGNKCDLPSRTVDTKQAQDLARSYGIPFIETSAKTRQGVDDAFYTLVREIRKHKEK
Chain of KRAS-G12D (P01116 with tags, fused parts or gaps isoform P01116-2 G12D): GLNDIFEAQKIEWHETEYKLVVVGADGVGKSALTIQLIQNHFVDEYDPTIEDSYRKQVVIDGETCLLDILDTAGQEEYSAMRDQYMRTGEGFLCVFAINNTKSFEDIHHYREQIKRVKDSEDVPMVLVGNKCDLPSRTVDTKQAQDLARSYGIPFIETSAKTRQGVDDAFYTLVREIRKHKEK
Chain of KRAS-WT (P01116 with tags, fused parts or gaps isoform P01116-2): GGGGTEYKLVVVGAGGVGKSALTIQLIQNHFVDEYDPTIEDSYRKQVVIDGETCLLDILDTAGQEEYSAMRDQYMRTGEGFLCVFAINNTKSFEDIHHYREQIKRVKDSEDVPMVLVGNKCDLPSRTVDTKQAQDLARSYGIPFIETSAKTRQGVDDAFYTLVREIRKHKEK

Cc1cc2[nH]ncc2c(-c2nccc3c2sc2nc(OC[C@@]45CCCN4C[C@H](F)C5)nc(N4CCOC[C@@](C)(O)C4)c23)c1[C@@H]1C[C@H]1C (atropisomer, axis not shown; (aS)) [Ex-67, (S)-4-((R)-2-(((2R,7aS)-2-fluorotetrahydro-1H-pyrrolizin-7a(5H)-yl)methoxy)-8-(6-methyl-5-((1R,2R)-2-methylcyclopropyl)-1H-indazol-4-yl)pyrido[4′,3′:4,5]thieno [2,3-d]pyrimidin-4-yl)-6-methyl-1,4-oxazepan-6-o1]
IC50 [1, 7]: 186 nM
IC50 [2, 8]: 113 nM
IC50 [3]: 11.9 nM
IC50 [4]: 40 nM
IC50 ([5]; SW-620, KRAS-G12V, 2 hours): 323 nM
IC50 [6]: 23.1 nM

Cn1c2nc(OC[C@@]34CCCN3C[C@H](F)C4)nc(N3CCOC[C@@](C)(O)C3)c2c2ccnc(-c3c(C4(F)CC4)c(Cl)cc4[nH]ncc34)c21 (single isomer, unassigned) [Ex-3]
IC50 [1, 7]: 134 nM
IC50 [2, 8]: 207 nM
IC50 [3]: 10.5 nM
IC50 [4]: 17.2 nM
IC50 ([5]; SW-620, KRAS-G12V, 2 hours): 95.5 nM
IC50 [6]: 15.3 nM

CCC1c2c(cc3[nH]ncc3c2-c2nccc3c2sc2nc(OC[C@@]45CCCN4C[C@H](F)C5)nc(N4CCOC[C@@](C)(O)C4)c23)CC1(F)F (single isomer, unassigned) [Ex-108]
IC50 [1, 7]: 28.9 nM
IC50 [2, 8]: 50 nM
IC50 [3]: 1.52 nM
IC50 [4]: 3.09 nM
IC50 ([5]; SW-620, KRAS-G12V, 2 hours): 20.9 nM
IC50 [6]: 5.41 nM

C[C@@]1(O)COCCN(c2nc(OC[C@@]34CCN3C[C@H](F)C4)nc3sc4c(-c5c(C6CC6)c(Cl)cc6[nH]ncc56)nccc4c23)C1 (single isomer, unassigned) [Ex-221]
IC50 ([1]; 2 hours compound incubation): 80.7 nM
IC50 [2, 9]: 175 nM
IC50 [3]: 5.55 nM
IC50 [4]: 22.8 nM
IC50 ([5]; SW-620, 2 hours compound incubation): 79.4 nM
IC50 [6]: 21.2 nM

C[C@@]1(O)COCCN(c2nc(OC[C@@]34CCCN3C[C@H](F)C4)nc3c(Cl)c4c(-c5c(C6CC6)c(Cl)cc6[nH]ncc56)nccn4c23)C1 (single isomer, unassigned) [Ex-300]
IC50 [1, 7]: 54.6 nM
IC50 [2, 8]: 222 nM
IC50 [3]: 6.53 nM
IC50 [4]: 14.4 nM
IC50 ([5]; SW-620, KRAS-G12V, 2 hours): 39.8 nM
IC50 [6]: 8.43 nM

C[C@@]1(O)COCCN(c2nc(OC[C@]3(CN4CC5(CCO5)C4)CC3(F)F)nc3sc4c(-c5c(C6(F)CC6)c(Cl)cc6[nH]ncc56)nccc4c23)C1 [Ex-265, (6S)-4-(2-(((R)-1-((1-oxa-6-azaspiro[3.3]heptan-6-yl)methyl)-2,2-difluorocyclopropyl)methoxy)-8-(6-chloro-5-(1-fluorocyclopropyl)-1H-indazol-4-yl)pyrido[4′,3′:4,5]thieno[2,3-d]pyrimidin-4-yl)-6-methyl-1,4-oxazepan-6-ol]
IC50 [2, 9]: 200 nM
IC50 [3]: 4.21 nM
IC50 [4]: 24.5 nM
IC50 [6]: 14.9 nM

CN(C)C1CC(F)(F)C2C[C@]12COc1nc(N2CCOC[C@@](C)(O)C2)c2c(n1)sc1c(-c3c(C4(F)CC4)c(Cl)cc4[nH]ncc34)nccc12 (stereo partly drawn) [Ex-270, (6S)-4-(8-(6-chloro-5-(1-fluorocyclopropyl)-1H-indazol-4-yl)-2-((2-(dimethylamino)-4,4-difluorobicy-clo[3.1.0]hexan-1-yl)methoxy)pyri-do[4′,3′:4,5]thi-eno[2,3-d]pyrimidin-4-yl)-6-methyl-1,4-oxazepan-6-ol]
IC50 [2, 8]: 142 nM
IC50 [3]: 8.78 nM
IC50 [4]: 27.9 nM
IC50 [6]: 30.9 nM

CN(C)C1CC(F)(F)C2C[C@]12COc1nc(N2CCOC[C@@](C)(O)C2)c2c(n1)sc1c(-c3c(C4(F)CC4)c(Cl)cc4[nH]ncc34)nccc12 (stereo partly drawn) [Ex-271]
IC50 ([2]; KRAS-G12D, 2 hours): 244 nM
IC50 [3]: 42.2 nM
IC50 [4]: 78.8 nM
IC50 [6]: 37.3 nM

Cc1cc2[nH]ncc2c(-c2nncc3c2sc2nc(OC[C@@]45CCCN4C[C@H](F)C5)nc(N4CCOC[C@@](C)(O)C4)c23)c1-c1ccco1 [Ex-281, (6S)-4-(2-(((2R,7aS)-2-fluorotetrahydro-1H-pyrrolizin-7a(5H)-yl)methoxy)-8-(5-(furan-2-yl)-6-methyl-1H-indazol-4-yl)pyrimido[5′,4′:4,5]thie-no[2,3-d]pyridazin-4-yl)-6-methyl-1,4-oxazepan-6-ol]
IC50 [2, 8]: 356 nM
IC50 [3]: 8.24 nM
IC50 [4]: 31.2 nM
IC50 [6]: 11.7 nM

C[C@@]1(O)COCCN(c2nc(OC[C@@]34CCCN3C[C@H](F)C4)nc3sc4c(-c5cccc(Cl)c5C5CC5)nncc4c23)C1 [Ex-284]
IC50 [2, 8]: 935 nM
IC50 [3]: 195 nM
IC50 [4]: 578 nM
IC50 [6]: 138 nM

F[C@H]1CN2CCC[C@@]2(COc2nc(N3CCCOCC3)c3c(n2)sc2c(-c4c(C5CC5)c(Cl)cc5[nH]ncc45)nncc23)C1 [Ex-286]
IC50 [2, 8]: 1110 nM
IC50 [3]: 205 nM
IC50 [4]: 52 nM
IC50 [6]: 50.3 nM

CN(C)C[C@@]1(COc2nc(N3CCOC[C@@](C)(O)C3)c3c(n2)sc2c(-c4c(C5CC5)c(Cl)cc5[nH]ncc45)nncc23)CC1(F)F [Ex-287, (6S)-4-(8-(6-chloro-5-cyclopropyl-1H-indazol-4-yl)-2-(((R)-1-((dimethylamino)methyl)-2,2-difluorocyclopropyl)meth-oxy)pyrimido[5′,4′:4,5]thi-eno[2,3-d]pyridazin-4-yl)-6-methyl-1,4-oxazepan-6-ol]
IC50 [2, 8]: 41.5 nM
IC50 [3]: 5.28 nM
IC50 [4]: 10.2 nM
IC50 [6]: 15.9 nM

Cc1cc2[nH]ncc2c(-c2nccn3c2cc2nc(OC[C@@]45CCCN4C[C@H](F)C5)nc(N4CCOC[C@@](C)(O)C4)c23)c1C1CC1 [Ex-295, (S)-4-(9-(5-cyclopropyl-6-methyl-1H-indazol-4-yl)-2-(((2R,7aS)-2-fluorotetrahydro-1H-pyrrolizin-7a(5H)-yl)methoxy)pyrazino[1′,2′:1,5]pyrrolo[3,2-d]pyrimidin-4-yl)-6-methyl-1,4-oxazepan-6-ol]
IC50 [2, 8]: 1900 nM
IC50 [3]: 72.1 nM
IC50 [4]: 185 nM
IC50 [6]: 98.2 nM

Cc1cc2[nH]ncc2c(-c2nccn3c2c(Cl)c2nc(OC[C@@]45CCCN4C[C@H](F)C5)nc(N4CCOC[C@@](C)(O)C4)c23)c1C(F)(F)F [Ex-299, (S)-4-(10-chloro-2-(((2R,7aS)-2-fluorotetrahydro-1H-pyrrolizin-7a(5H)-yl)methoxy)-9-(6-methyl-5-(trifluoromethyl)-1H-indazol-4-yl)pyrazino[1′,2′:1,5]pyrrolo[3,2-d]pyrimidin-4-yl)-6-methyl-1,4-oxazepan-6-ol]
IC50 [2, 8]: 1450 nM
IC50 [3]: 115 nM
IC50 [4]: 293 nM
IC50 [6]: 93.1 nM
